In ChEMBL document CHEMBL1143143, “The influence of esters and carboxylic acids as the N-substituent of opioids. Part 1: Benzomorphans” (Bioorg Med Chem, 2008):
Calls of active or inactive are those of the source. The rule behind the calls is not given here.

What was measured:
[1] = Displacement of 3.0 nM [3H]etorphine from opioid receptor in rat cerebrum
Mus musculus [2] = assay: Antinociceptive activity in sc dosed mouse assessed as inhibition of morphin response by tail flick assay; assay type: functional
Mus musculus [3] = assay: Antinociceptive activity in sc dosed mouse by hot plate method; assay type: functional
[4] = Displacement of [3H]etorphine from opioid receptor in rat cerebrum
Mus musculus [5] = assay: Antinociceptive activity in sc dosed mouse by tail flick method; assay type: functional
Mus musculus [6] = assay: Antinociceptive activity in sc dosed mouse by phenylquinone antiwrithing assay; assay type: functional
Mu-type opioid receptor = Mu-type opioid receptor (Mus musculus, UniProt P42866); assay: Agonist activity at mu opioid receptor in Swiss mouse vas deferens assessed as inhibition of electrically-stimulated twitch; assay type: functional, tissue-based
Chain of Mu-type opioid receptor (P42866 whole entry): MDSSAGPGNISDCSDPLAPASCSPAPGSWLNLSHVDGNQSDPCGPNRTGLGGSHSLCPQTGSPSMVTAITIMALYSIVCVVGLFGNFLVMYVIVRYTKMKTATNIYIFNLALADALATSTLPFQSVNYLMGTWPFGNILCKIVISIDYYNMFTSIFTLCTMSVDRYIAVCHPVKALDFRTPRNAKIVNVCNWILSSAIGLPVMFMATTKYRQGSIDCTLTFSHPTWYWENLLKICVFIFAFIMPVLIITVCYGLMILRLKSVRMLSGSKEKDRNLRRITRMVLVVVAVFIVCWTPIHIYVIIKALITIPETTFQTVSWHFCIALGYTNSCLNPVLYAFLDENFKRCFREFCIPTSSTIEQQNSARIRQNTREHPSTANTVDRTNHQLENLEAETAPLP

| Compound | EC50 [1] | ED50 (Mus musculus [2]) | Activity (Mus musculus [3]) | EC50 [4] | Activity (Mus musculus [5]) | Activity (Mus musculus [6]) | Activity (Mus musculus [2]) | EC50 (Mu-type opioid receptor) | ED50 (Mus musculus [6]) | ED50 (Mus musculus [3]) | ED50 (Mus musculus [5]) |
| --- | --- | --- | --- | --- | --- | --- | --- | --- | --- | --- | --- |
| COc1ccc2c3c1O[C@H]1[C@@H](O)C=C[C@H]4[C@@H](C2)N(C)CC[C@@]341 [CODEINE] | 34700 nM |  |  |  |  |  |  |  |  |  |  |
| CN1CC[C@]23c4c5ccc(O)c4O[C@H]2[C@@H](O)C=C[C@H]3[C@H]1C5 [MORPHINE] |  | 2.6 mg/kg |  |  |  |  |  |  |  |  |  |
| C=CCN1CC[C@]23c4c5ccc(O)c4O[C@H]2C(=O)CC[C@@]3(O)[C@H]1C5 [NALOXONE] | 9.1 nM | 0.03 mg/kg | inactive | 6.26 nM | inactive | inactive |  |  |  |  |  |
| CCOC(=O)CCCN1CC[C@]2(C)c3cc(O)ccc3CC1[C@@H]2C |  |  | inactive | 1020 nM | inactive |  | inactive | 17900 nM | 7.1 mg/kg |  |  |
| C[C@H]1C2Cc3ccc(O)cc3[C@@]1(C)CCN2CCC(=O)O |  |  | inactive | > 6000 nM | inactive |  | inactive |  | 11.4 mg/kg |  |  |
| CCOC(=O)CCN1CC[C@]2(C)c3cc(O)ccc3CC1[C@@H]2C |  |  | inactive |  | inactive | inactive | inactive |  |  |  |  |
| O=C1CC[C@@]2(O)[C@H]3Cc4ccc(O)c5c4[C@@]2(CCN3CC2CC2)[C@H]1O5 [NALTREXONE] | 2 nM | 0.007 mg/kg | inactive | 0.63 nM | inactive | inactive |  |  |  |  |  |
| CCOC(=O)CN1CC[C@]2(C)c3cc(O)ccc3CC1[C@@H]2C |  |  | inactive | 2080 nM | inactive | inactive | inactive |  |  |  |  |
| C=CCN1CC[C@]23c4c5ccc(O)c4O[C@H]2[C@@H](O)C=C[C@H]3[C@H]1C5 [NALORPHINE] |  | 2.6 mg/kg |  | 20 nM | inactive |  |  |  | 0.6 mg/kg |  |  |
| C[C@H]1C2Cc3ccc(O)cc3[C@@]1(C)CCN2CCCC(=O)O |  |  | inactive | > 6000 nM | inactive |  | inactive |  | 1.4 mg/kg |  |  |
| C[C@H]1[C@@H]2Cc3ccc(O)cc3[C@]1(C)CCN2C [METAZOCINE] |  |  |  |  |  |  | inactive |  | 0.3 mg/kg | 0.62 mg/kg | 0.81 mg/kg |
| C[C@H]1C2Cc3ccc(O)cc3[C@@]1(C)CCN2CC(=O)O |  |  | inactive | > 6000 nM | inactive | inactive | inactive | 9790 nM |  |  |  |
